The nature of this data set: gradient 5% acetonitrile 3 min, to 50% in 2 min, to 85% in 15 min, held 3 min, 100 µL/min. The note with it: column: Zorbax Extend-C18 2.1 x 50 mm; eluents: water / acetonitrile, 0.1% formic acid. The essentials:
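Retention time was recorded from adduct peaks, which were picked computationally and each inspected manually. Pure standards ran in mixtures of ~100 molecules on HPLC coupled to a quadrupole time-of-flight mass spectrometer, in positive and negative ionization mode, through a Zorbax Extend-C18 column (2.1 × 50 mm, 1.8 μm) at 100 μL/min. Eluents were water and acetonitrile, each with 0.1% formic acid.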
`CC1=C(c2ccc(Cl)cc2)S(=O)(=O)N=C1N1CCC(C(=O)NCCc2ccco2)CC1` had an RP-LC retention time of 870 s. Molecule `C=CCN(Cc1nc(-c2ccc(C)cc2)no1)C(=O)Nc1cccc(C)c1` came in with an RP-LC retention time of 1110 s. Take `Cc1ccsc1C(=O)NCC1CCCCC(=O)N1` (stereo not given): the RP-LC retention time worked out at 640 s. Under `CCC(=O)N1CCc2cc(N3CC(C(=O)Nc4cccc(F)c4C)CC3=O)ccc21` (stereo not given) stands 801 s; under `Cc1c(S(=O)(=O)N2CCN(c3ccccn3)CC2)cc(-c2nc(-c3ccccc3)cs2)n1C`, 885 s; under `COc1ccc(-c2cc3n(n2)C(NC2CC2)CNC3=O)cc1` (stereo not given), 683 s.

The molecule `Cc1nc(-c2cc(S(=O)(=O)N3CCC(C(=O)NC4CCCCCCC4)CC3)c(C)s2)no1` returned an RP-LC retention time of 1070 s. Under `Cc1csc(-c2cc(S(=O)(=O)Nc3ccc(Cl)cc3C)c(C)s2)n1` stands 1140 s; under `CCOc1ccc2nc(NC(=O)C3CCN(S(=O)(=O)c4cn(C)c(C)n4)CC3)sc2c1`, 772 s.

Molecule `CCN(CC)c1cc(CNC(=O)Nc2cc(Cl)c(OC)cc2OC)ccn1` gave an RP-LC retention time of 638 s. Under `CCc1ccc(NC(=O)c2c(C)oc3c2C2=NC(CC)CN2C=N3)cc1` (stereo not given) stands 712 s. Next, `COc1ccc(C(=O)N2CC(=O)Nc3ccc(F)cc3C2c2ccccc2)c(OC)c1` (stereo not given): 854 s; `COc1cccc(CNC(=O)Cn2nc3c(Oc4ccc(Cl)cc4)nccn3c2=O)c1`: 849 s. Next, `CCOC(=O)c1c(C)c(C(=O)CN(CC2CCCO2)C(=O)c2ccc(F)cc2)c(C)n1CC` (stereo not given): 973 s; `COc1ccc(NC(=O)c2cc(C(C)(C)C)n3nccc3n2)c(C)c1`: 1240 s.

With `CCc1noc(NC(C)=O)c1-c1ccc(C)c(S(=O)(=O)Nc2ccccc2Cl)c1`, the RP-LC retention time is 829 s. Next, `CCCS(=O)(=O)N1CCCCC1c1nc(-c2cccnc2)n[nH]1` (stereo not given): 601 s; `O=C(NC1CCN(c2ncnc3c2CCC3)C1)c1ccsc1` (stereo not given): 580 s; `O=c1ccc(-c2cccs2)nn1CCNS(=O)(=O)c1ccccc1C(F)(F)F`: 779 s. Next, `CCCn1cc(C2=CCN(S(=O)(=O)Cc3cccc(Cl)c3)CC2)c2cccnc21`: 1110 s; `Cc1nc(-c2csc(S(=O)(=O)N3CCCC(C(=O)Nc4ccc(C#N)cc4)C3)c2)no1` (stereo not given): 935 s.

Molecule `O=C([C@@H]1C[C@H](F)CN1S(=O)(=O)c1ccc(F)c(Cl)c1)N1CCc2ccccc2C1` yielded an RP-LC retention time of 997 s. Under `COc1ccc(NC(=O)CN2C(=O)CC(c3cccs3)=Nc3ccccc32)cc1` stands 899 s.

The molecule `O=C(CC1CCCC1)NCCC1CCN(C(=O)Nc2ccc(F)cc2F)CC1` registered an RP-LC retention time of 812 s. `CCOc1ccc(-c2csc(Cc3nc(-c4ccc(Cl)cc4)no3)n2)cc1` registered an RP-LC retention time of 1360 s. Under `CC(C)Cn1cc(CCNC(=O)c2cncc(Br)c2)c2cccnc21` stands 796 s; under `CCN(C(C)=O)c1nc(-c2ccc(C3CCCCC3)cc2)cs1`, 848 s. Under `CC(C)CNC(=O)c1c2c(nc3ccccc13)CCCC2` stands 639 s; under `CCCNC(=O)Cn1nc2cc(-c3ccccc3)nc(C)n2c1=O`, 766 s.

`CCOc1ccc(-c2noc(Cn3cnc4c(oc5ccccc54)c3=O)n2)cc1OC` returned an RP-LC retention time of 916 s.

`O=C(Cn1cccc1-c1nnc(C2CCC2)o1)Nc1ccc(F)c(F)c1`: the RP-LC retention time amounted to 945 s. As for `Cc1nn2c(CNS(=O)(=O)c3ccc(F)c(Cl)c3)c(-c3ccccc3)nc2s1`, the RP-LC retention time stood at 942 s. Next, `Cc1ccc(Sc2cc3c(cc2NC(=O)c2ccco2)n(C)c(=O)n3C)cc1`: 988 s.

Turning to `O=C(NC1CC1)c1ccc(OCC2CCN(C(=O)c3ccccc3C(F)(F)F)CC2)cc1`, the RP-LC retention time turned out to be 836 s. `Cc1ccc(-c2ncccc2CNC(=O)c2ccc3c(c2)OCO3)cc1` showed an RP-LC retention time of 646 s. Next, `O=C(Nc1ccc2ncnc(N3CCCCC3)c2c1)c1ccc(Br)o1`: 704 s; `NC(=O)c1ccc(I)c([N+](=O)[O-])c1`: 745 s; `Cc1cc(=O)n(CC(=O)Nc2ccc3c(c2)OCO3)c(N2CCCC2)n1`: 629 s.

For `CCOc1nc2ccccc2nc1N1CCCC(C(=O)NC(C)c2ccccc2)C1` (stereo not given), the RP-LC retention time turned out to be 1120 s. As for `CN(C)c1cccc(-c2nc(-c3cn(Cc4cccc(F)c4)nn3)no2)c1`, the RP-LC retention time stood at 677 s. `CCOc1ccc(N2CCCCn3c2nc2c3c(=O)n(CCOC)c(=O)n2C)cc1` came in with an RP-LC retention time of 853 s. Under `CC(Cc1cccc(C(F)(F)F)c1)NCCCc1ccccc1` (stereo not given) stands 868 s; under `Cc1ccc(C)c(CN2CCC(CNC(=O)C3CCCN(c4cc(=O)n(C)c(=O)n4C)C3)CC2)c1` (stereo not given), 599 s.

`O=C(C1CCN(S(=O)(=O)N2CCOCC2)CC1)N1CCC(Cc2nc(C3CCOCC3)no2)CC1` yielded an RP-LC retention time of 681 s. `O=C(CN1C(=O)COc2ccc(C(=O)N3CCCCC3)cc21)NC1CCCCCCC1` had an RP-LC retention time of 844 s.

In turn, `O=C(Nc1cccc(F)c1)C1CCN(C(=O)c2ncn3c2COC(c2ccccc2)C3)CC1` (stereo not given) came in with an RP-LC retention time of 921 s. Under `CC(C)c1nncn1C1CCN(C(=O)c2cc(-c3cccs3)[nH]n2)C1` (stereo not given) stands 617 s; under `C[C@@H]1CN(C(=O)c2ccco2)C[C@H]1c1nc(-c2ccccc2)no1`, 936 s; under `COc1ccc(-c2nc(CNC(=O)C3CCOC3)no2)cc1` (stereo not given), 677 s.

In turn, `Cc1cc(=O)n(CC(=O)Nc2ccc(Cl)cc2)c(-c2ccccc2)n1` yielded an RP-LC retention time of 1080 s.

The molecule `COc1ccc(C(=O)N2C[C@@H]3C[C@H](NC(=O)c4cccs4)[C@H]2C3)cn1` registered an RP-LC retention time of 679 s. Under `CCNS(=O)(=O)c1ccc(Cl)c(-c2nnc(-c3ccccc3)o2)c1` stands 919 s; under `COc1ccc(S(=O)(=O)c2cnc3cc4c(cc3c2N2CCN(C)CC2)OCCO4)cc1`, 608 s; under `Cc1ccc(NC(=O)Cn2ncc3c(c2=O)N(CC2CC2)C(=O)CS3)c(Cl)c1`, 846 s. Under `Cc1noc(-c2ccc(NC(=O)c3cccs3)cc2)n1` stands 776 s; under `COc1cc(-c2noc(CN3C(=O)COc4cc(Cl)ccc43)n2)cc(OC)c1OC`, 1020 s. Under `C=CCn1c(=O)c2cnc(Nc3ccc(N4CCN(C)CC4)cc3)nc2n1-c1cccc(C(C)(C)O)n1` stands 644 s; under `O=C1Nc2ccccc2C(=O)N2CCCC12` (stereo not given), 590 s; under `CCOc1ccc(C2CNC(=O)C2C(=O)OC)cc1OCC` (stereo not given), 694 s. `COCCN1C(=O)c2cc(-c3ccc(OC)cc3)nn2CC1(C)C(=O)NCc1ccccc1OC` (stereo not given) displayed an RP-LC retention time of 853 s.

Molecule `Cc1cc(C(=O)NCC2Cn3cccc3C(=O)N2C)nn1C` (stereo not given) registered an RP-LC retention time of 599 s. For the molecule `CCC(=O)N1CCc2cc(C)c(S(=O)(=O)NC3CC3)cc21`, the RP-LC retention time worked out at 767 s. Next, `O=C1CC(c2cc(Br)ccc2F)c2scc(S(=O)(=O)c3ccccc3)c2N1` (stereo not given): 1010 s. With `CC1CCN(S(=O)(=O)c2ccc(-c3nnc(C(=O)NCCCN4CCOCC4)o3)cc2)CC1`, the RP-LC retention time was determined as 664 s. Next, `CCOC(=O)C(C)NC(=O)N1CCN(c2nc3ccccc3n2CC)CC1` (stereo not given): 609 s; `Cc1oc(C2CCN(C(=O)Nc3ccc(Cl)cc3F)CC2)nc1C(=O)N1CCCCC1`: 885 s; `O=C(NCc1nnnn1C1CCCCC1)c1c(F)cccc1Cl`: 763 s.

Consider `O=C(CN1CCCc2nc(C3CC3)ncc2C1=O)NCCCN1CCOCC1`, for which the RP-LC retention time was determined as 563 s. As for `O=C(NCc1cccc(Cl)c1)c1c(O)c2cccnc2[nH]c1=O`, the RP-LC retention time amounted to 954 s.

Take `O=c1n(Cc2cccc(F)c2)nc2c(S(=O)(=O)N3CCc4ccccc4C3)cccn12`: the RP-LC retention time was found to be 938 s. Under `COc1ccc(S(=O)(=O)N2CC(F)(F)C[C@H]2c2nc(C)no2)cc1` stands 851 s; under `CCCC(=O)Nc1ccc2c(c1)CN(C(=O)CC1CCCC1)C(C(=O)N(C)C)C2` (stereo not given), 716 s; under `CCCNC(=O)Cn1c(CNC(C)=O)nc2ccccc21`, 575 s. Under `Cc1ccc(S(=O)(=O)[C@H]2CS(=O)(=O)C[C@@H]2N2CCN(c3ccc(F)cc3)CC2)cc1` stands 962 s. Next, `CCn1nc(CNC(=O)C2CCCCC2)c2ccccc21`: 828 s; `CCc1noc(-c2nc(-c3ccc(OC)c(OC)c3)no2)n1`: 976 s.

As to `CN1C2CCCC1CC(NC(=O)c1nn(C)c3ccccc13)C2` (stereo not given), the RP-LC retention time turned out to be 640 s. Next, `Cc1nn(-c2ccc(N3CCCCC3)nn2)c(C)c1CCC(=O)N1CCN(c2ccccn2)CC1`: 594 s. Next, `CCN1CCN(C(=O)c2cn(-c3cc(N4CCSCC4)ncn3)cn2)CC1`: 605 s; `COCC(=O)N(C1CCOCC1)C1CCN(S(=O)(=O)c2ccccc2C)CC1`: 737 s.

The values above are taken from the METLIN SMRT retention time set (Domingo-Almenara et al. 2019).
